# Earlier results in patent publication US7601757B2, “Lipid system and methods of use” (Abbott Laboratories, priority 2003, dated 2009).
# Tests used:
# [1] = system: obese individuals with markers of insulin resistance; settings: diets rich in alpha-linolenic acid as margarine and muffins made with flaxseed oil
# [2] = system: genetically insulin-resistant diabetic mice (KK-Ay); settings: 21 days after daily administration by gavage
smiles,measurement,setting,value
CC/C=C\C/C=C\C/C=C\CCCCCCCC(=O)O [alpha-linolenic acid],Insulin sensitivity,[1],decreased
same,Blood glucose response to insulin,[2],significant improvement
